Results taken from article PMC5315687 (ACS chemical biology, 2017).

Biological target: T1, His6-MibD (Microbispora sp. ATCC PTA-5024, UniProt W2ESX4)
T1 sequence (W2ESX4 1-215): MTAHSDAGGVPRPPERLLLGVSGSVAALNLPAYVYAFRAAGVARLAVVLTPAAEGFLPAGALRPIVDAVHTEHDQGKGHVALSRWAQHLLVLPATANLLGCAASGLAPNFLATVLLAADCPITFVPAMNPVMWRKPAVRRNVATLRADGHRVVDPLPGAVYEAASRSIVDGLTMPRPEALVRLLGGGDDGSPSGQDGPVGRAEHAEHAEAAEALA
Assay: flavin isolated from heat-denatured protein, MALDI-TOF MS
Assay type: binding
Conditions: non-covalent, co-purified

SMILES: Cc1cc2nc3c(=O)[nH]c(=O)nc-3n(C[C@H](O)[C@H](O)[C@H](O)COP(=O)(O)OP(=O)(O)OC[C@H]3O[C@@H](n4cnc5c(N)ncnc54)[C@H](O)[C@@H]3O)c2cc1C [FAD]
- flavin isolated from heat-denatured protein, MALDI-TOF MS: The isolation of FAD from His6-MibD suggests the cofactor is not covalently linked.
